Structures are written as SMILES. Values after ≈ are worked out from the molar mass of the structure shown. Read-outs that look alike come from different tables or passages of the source.

Data set [1] can be described thus: Toxicity of sample to non-infected cells (MTT). The conditions noted are these: human, mt-4 cells, non-infected MT-4 cells, read-out: CC50 = 50% toxic concentration. It is filed as cell-based. On the procedure:
(§1) Various concentrations of 3,3'-[1,10-decanediyl-bis(carbonylamino)]-bis(1,5-naphthalenedisulfonc acid) were added to each medium suspended 1×10^5 cells/ml of MT-4 cells, which was infected with HTLV-IIIB or HIV-1HE. Infection was made at an infection number of MOI=0.02. Then, after cultured for 4 days at 37° C., the number of surviving cells was quantitatively determined by dyeing surviving cells with MTT dye. Moreover, at the same time, by dyeing also non-infected cells with MTT dye, the toxicity of sample to cells was calculated.

For the next data set, the system named is HIV-1HE. Nature of the data set: Inhibitory effect on the destruction of T-cells due to HIV (MTT), HIV-1HE. The note with it: MT-4 cells. The data set is classed as cell-based, HIV (human immunodeficiency virus). On the procedure: (§2) 1. Inhibitory effect on the destruction of T-cells due to HIV
as §1

In a further data set the test system is HTLV-IIIB. Nature of the data set: Inhibitory effect on the destruction of T-cells due to HIV (MTT), HTLV-IIIB. The data set is classed as cell-based, HIV (human immunodeficiency virus). The note with it: MT-4 cells. On the procedure: as §2, §1
Data set [2] deals with MOLT-4 cells infected with HTLV-IIIB. Nature of the data set: Inhibition of the formation of giant cells. It is filed as cell-based. The note with it: co-culture of HTLV-IIIB infected and non-infected MOLT-4 cells, 24 hours, counted under microscope. The method, then:
3. Inhibition of the formation of giant cells
MOLT-4 cells infected with HTLV-IIIB and MOLT-4 cells without infection were cultured each in same number (5×10^4) in medium with 3,3'-[1,10-decanediyl-bis(carbonylamino)]-bis(1,5-naphthalenedisulfonic acid) added and, after cultured for 24 hours, the number of giant cells formed was counted under microscope.

Another data set relates to bone marrow cells. The note with it: background statement; cited from earlier work.
The mark [3] stands for this setting: Human immunodeficiency virus 1, MT4, 96 h, MOI=0.02, 4 days at 37° C., MTT, read-out: EC50 = Effective concentration for inhibition of 50% cells.

On to `O=C(CCCCCCCCCCC(=O)Nc1cc(S(=O)(=O)O)c2cccc(S(=O)(=O)O)c2c1)Nc1cc(S(=O)(=O)O)c2cccc(S(=O)(=O)O)c2c1` [3,3'-[1,10-decanediyl-bis(carbonylamino)]-bis(1,5-naphthalenedisulfonic acid)], for which the CC50 at 96 h in data set [1] (HIV-1HE system (No. 2)) is 500 µg/mL (≈ 624 µM); in data set [1] (HTLV-IIIB system (No. 1)), 383 µg/mL (≈ 478 µM). Besides, the EC50 in the data set on HIV-1HE (setting [3]) amounted to 40.7 µg/mL (≈ 50.8 µM); in the data set with HTLV-IIIB (setting [3]), 46 µg/mL (≈ 57.4 µM). Also, the “T.I. = Selective toxicity (CC50 /EC50)” value with HIV-1HE is reported as 12.3; with HTLV-IIIB, 8.3. Further, in data set [2], the “inhibitory activity against formation of giant cells” value was “recognized”.
As for `Cc1cn([C@H]2C[C@H](N=[N+]=[N-])[C@@H](CO)O2)c(=O)[nH]c1=O` [AZT, azido thymidine], the side effects entry in the data set on bone marrow cells is on record as “inhibition of the growth of bone marrow cells”.

The values above are taken from patent publication US5264621A, “Anti-virus agent” (Sanyo-Kokusaku Pulp Co., Ltd., priority 1991, dated 1993).
